Laboratory results: US4017637A, “Benzylamine analgesics” (priority 1975, dated 1977)
Structures can show the parent of a compound that is named as a salt.

Test system: rats
Experiment: Analgesic activity in rats, light beam on tip of tail (modified D'Amour and Smith procedure)
Assay type: in vivo, rat
Conditions: for ED50: Rattus norvegicus
Protocol: Rats weighing approximately 150 to 200 g. are placed in individual holders, and each holder in turn is situated so that a high intensity light beam shines on the tip of the tail. The intensity of the light beam is adjusted so that normal rats respond by moving their tails out of the light beam in 3 to 8 seconds. The average of two readings taken 20 minutes apart serves as a pre-drug control. Rats are selected for use whose control readings agree within 1 second. Compounds are administered and reaction times are measured every 20 minutes for 2 hours. Analgesic agents cause a significant increase in reaction time.

CN(C)C(c1cccc(O)c1)[C@H]1CCCC[C@H]1O (relative stereo) [1-cis-2-(α-dimethylamino-m-hydroxybenzyl)cyclohexanol]
No. Rats Showing Analgesia/No. Rats Tested (I.M., 0.41 mg/kg): 4/10
No. Rats Showing Analgesia/No. Rats Tested (I.M., 0.62 mg/kg): 7/10
No. Rats Showing Analgesia/No. Rats Tested (I.P., 3.12 mg/kg): 8/10
No. Rats Showing Analgesia/No. Rats Tested (I.P., 6.25 mg/kg): 6/10
No. Rats Showing Analgesia/No. Rats Tested (P.O., 3.12 mg/kg): 5/10
No. Rats Showing Analgesia/No. Rats Tested (P.O., 6.25 mg/kg): 7/10

CCC(=O)O[C@@H]1CCCC[C@@H]1C(c1cccc(OC)c1)N(C)C.Cl (relative stereo) [Cis-2-[α-Dimethylamino-m-Methoxybenzyl]Cyclohexanol Propionate, Hydrochloride]
No. Rats Showing Analgesia/No. Rats Tested (I.M., 15.0 mg/kg): 3/10
No. Rats Showing Analgesia/No. Rats Tested (I.P., 12.5 mg/kg): 3/5

CN(C)C(c1ccccc1)[C@H]1CCCC[C@H]1O (relative stereo) [Cis-2-[α-Dimethylaminobenzyl]-Cyclohexanol]
No. Rats Showing Analgesia/No. Rats Tested (I.M., 6.25 mg/kg): 8/10
No. Rats Showing Analgesia/No. Rats Tested (I.P., 6.25 mg/kg): 9/10
No. Rats Showing Analgesia/No. Rats Tested (I.P., 12.5 mg/kg): 8/10
No. Rats Showing Analgesia/No. Rats Tested (P.O., 5.0 mg/kg): 6/10

COc1cccc(C([C@H]2CCCC[C@H]2O)N(C)C)c1 (relative stereo) [cis-2-(α-dimethylamino-m-methoxybenzyl)cyclohexanol]
No. Rats Showing Analgesia/No. Rats Tested (I.P., 25.0 mg/kg): 3/5

COCOc1cccc(C([C@H]2CCCC[C@H]2O)N(C)C)c1 (relative stereo) [cis-2-[α-dimethylamino-m-(methoxymethoxy)benzyl]cyclohexanol]
No. Rats Showing Analgesia/No. Rats Tested (I.M., 2.5 mg/kg): 3/10
No. Rats Showing Analgesia/No. Rats Tested (I.M., 5.0 mg/kg): 5/10
No. Rats Showing Analgesia/No. Rats Tested (I.P., 6.25 mg/kg): 2/5
No. Rats Showing Analgesia/No. Rats Tested (I.P., 25.0 mg/kg): 5/5

CN(C)C(c1cccc(O)c1)[C@H]1CCCC[C@H]1O (stereo partly drawn) [Cis-2-(α-Dimethylamino-m-Hydroxybenzyl) Cyclohexanol, Hydrochloride]
No. Rats Showing Analgesia/No. Rats Tested (I.M., 2.5 mg/kg): 5/10
No. Rats Showing Analgesia/No. Rats Tested (I.P., 3.12 mg/kg): 3/5
No. Rats Showing Analgesia/No. Rats Tested (I.P., 12.5 mg/kg): 4/5
No. Rats Showing Analgesia/No. Rats Tested (P.O., 5.0 mg/kg): 5/10

CN1CC[C@]23c4c5ccc(O)c4O[C@H]2[C@@H](O)C=C[C@H]3[C@H]1C5 [morphine, reference compound]
ED50 (im): 2 mg/kg
ED50 (ip): 3.5 mg/kg
ED50 (po): 10 mg/kg
